The text below walks through data of US20240246964A1 (Arbutus Biopharma Corporation, priority 2021, published 2024).

SMILES strings stand for the structures.

The target of assay [1] is PD-L1 His protein / PD-1 Fc protein (Homo sapiens (Human), UniProt Q9NZQ7). The assay is described as follows: HTRF Assay (PD-1/PD-L1 interaction). Type of assay: binding. The conditions noted are these: PD-L1 His 6 nM, PD-1 Fc 6 nM.
The next assay addresses human PD-L1 (Homo sapiens (Human), UniProt Q9NZQ7). The assay is described as follows: T cell activation luciferase reporter cell culture system (T Cell Activation Assay). In kind it is cell-based. The note with it: luciferase reporter assay; PD-L1 aAPC/CHO-K1 cells with PD-1 effector Jurkat T cells.

PD-L1 His protein / PD-1 Fc protein, sequence (Q9NZQ7 19-238): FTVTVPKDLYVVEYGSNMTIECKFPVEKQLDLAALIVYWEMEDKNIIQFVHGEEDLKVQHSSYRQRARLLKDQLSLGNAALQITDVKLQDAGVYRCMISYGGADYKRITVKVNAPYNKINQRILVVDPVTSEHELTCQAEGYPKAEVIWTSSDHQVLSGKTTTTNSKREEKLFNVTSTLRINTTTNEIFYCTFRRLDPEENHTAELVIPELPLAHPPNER
human PD-L1, sequence (Q9NZQ7 19-290): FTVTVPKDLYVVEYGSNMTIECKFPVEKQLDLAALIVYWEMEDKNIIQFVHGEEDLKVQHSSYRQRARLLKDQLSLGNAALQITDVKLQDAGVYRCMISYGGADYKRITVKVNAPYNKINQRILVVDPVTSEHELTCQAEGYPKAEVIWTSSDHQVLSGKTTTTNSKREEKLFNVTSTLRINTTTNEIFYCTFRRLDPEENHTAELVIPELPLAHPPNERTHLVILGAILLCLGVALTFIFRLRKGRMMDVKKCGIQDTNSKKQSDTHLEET

For the compound `COc1nc(-c2cccc(-c3ccnc(-c4ccc(CN5CC6(CNC(=O)C6)C5)c(OC(F)F)c4)c3Cl)c2Cl)ccc1CNC1CCOCC1` [Example 683, 2-(4-(3-Chloro-4-(2-chloro-3-(6-methoxy-5-(((tetrahydro-2H-pyran-4-yl)amino)methyl)pyridin-2-yl)phenyl)pyridin-2-yl)-2-(difluoromethoxy)benzyl)-2,6-diazaspiro[3.4]octan-7-one], the IC50 in assay [1] came out at 0.29 nM. For the same compound, a half-maximal effect at human PD-L1 (EC50) was put at 25.9 nM.

In assay [1], `COc1nc(-c2cccc(-c3ccnc(-c4ccc(CN5CC6(CNC(=O)C6)C5)c(OC(F)F)c4)c3Cl)c2Cl)ccc1CNC1CCN(C(C)=O)CC1` [Example 684, 2-(4-(4-(3-(5-(((1-Acetylpiperidin-4-yl)amino)methyl)-6-methoxypyridin-2-yl)-2-chlorophenyl)-3-chloropyridin-2-yl)-2-(difluoromethoxy)benzyl)-2,6-diazaspiro[3.4]octan-7-one] returned an IC50 of 1.8 nM. The compound further gave a concentration giving a half-maximal response (EC50) at human PD-L1 of 34.9 nM.

Regarding `COc1nc(-c2cccc(-c3ccnc(-c4ccc(CNC5CCOCC5)c(OC(F)F)c4)c3Cl)c2Cl)ccc1CN1CC2(CNC(=O)C2)C1` [Example 685, 2-((6-(2-Chloro-3-(3-chloro-2-(3-(difluoromethoxy)-4-(((tetrahydro-2H-pyran-4-yl)amino)methyl)phenyl)pyridin-4-yl)phenyl)-2-methoxypyridin-3-yl)methyl)-2,6-diazaspiro[3.4]octan-7-one], in assay [1], the IC50 was determined as 4.22 nM. At human PD-L1, the midpoint of the response, the EC50, lay at 51.7 nM.

With `COc1nc(-c2ccnc(-c3cccc4c3CC[C@@H]4Oc3nc(OC)c(CNC[C@@H]4CCC(=O)N4)cc3C(F)(F)F)c2Cl)ccc1CNC1CCOCC1` [Example 686, (S)-5-((((6-(((S)-4-(3′-chloro-6-methoxy-5-(((tetrahydro-2H-pyran-4-yl)amino)methyl)-[2,4′-bipyridin]-2′-yl)-2,3-dihydro-1H-inden-1-yl)oxy)-2-methoxy-5-(trifluoromethyl)pyridin-3-yl)methyl)amino)methyl)pyrrolidin-2-one], the IC50 in assay [1] amounted to 14.8 nM. The compound also showed an EC50 at human PD-L1 of 11.1 nM.

As to `COCC(=O)N1CC2(CN(Cc3ccc(-c4cccc(-c5ccnc(-c6ccc(CN7CC8(CNC(=O)C8)C7)c(OC)c6)c5Cl)c4Cl)nc3OC)C2)C1` [Example 687, 2-(4-(3-Chloro-4-(2-chloro-3-(6-methoxy-5-((6-(2-methoxyacetyl)-2,6-diazaspiro[3.3]heptan-2-yl)methyl)pyridin-2-yl)phenyl)pyridin-2-yl)-2-methoxybenzyl)-2,6-diazaspiro[3.4]octan-7-one], the IC50 in assay [1] is 0.08 nM. Also, a half-maximal response on human PD-L1 (EC50) required 26.3 nM.

In assay [1], `COc1nc(-c2cccc(-c3ccnc(-c4ccc(CN5CC6(CNC(=O)C6)C5)c(OC(F)F)c4)c3Cl)c2Cl)ccc1CN1CC2(C1)CN(C(C)=O)C2` [Example 688, 2-(4-(4-(3-(5-((6-Acetyl-2,6-diazaspiro[3.3]heptan-2-yl)methyl)-6-methoxypyridin-2-yl)-2-chlorophenyl)-3-chloropyridin-2-yl)-2-(difluoromethoxy)benzyl)-2,6-diazaspiro[3.4]octan-7-one] came in with an IC50 of 1.46 nM. Moreover, on human PD-L1, the EC50 stood at 17 nM.

Consider `COc1nc(-c2cccc(-c3ccnc(-c4ccc(CNC5CCOCC5)c(OC(F)F)c4)c3Cl)c2Cl)ccc1CN1CC2(C1)CN(C(C)=O)C2` [Example 689, 1-(6-((6-(2-Chloro-3-(3-chloro-2-(3-(difluoromethoxy)-4-(((tetrahydro-2H-pyran-4-yl)amino)methyl)phenyl)pyridin-4-yl)phenyl)-2-methoxypyridin-3-yl)methyl)-2,6-diazaspiro[3.3]heptan-2-yl)ethan-1-one], for which, in assay [1], half-maximal inhibition (IC50) was put at 3.33 nM. At human PD-L1, this compound registered an EC50 of 37.4 nM.

As to `COc1cc(-c2nccc(-c3cccc(-c4ccc(CN5CCC(O)CC5)c(OC)n4)c3Cl)c2Cl)ccc1CN1CC2(CCN(C(C)=O)C2)C1` [Example 693, 1-(2-(4-(3-Chloro-4-(2-chloro-3-(5-((4-hydroxypiperidin-1-yl)methyl)-6-methoxypyridin-2-yl)phenyl)pyridin-2-yl)-2-methoxybenzyl)-2,6-diazaspiro[3.4]octan-6-yl)ethan-1-one], inhibition in assay [1] was half-maximal at 0.71 nM (IC50). Further, the EC50 on human PD-L1 is 26.1 nM.

The compound `COc1nc(-c2cccc(-c3ccnc(-c4cc5c(OC)nc(CN6CC(C)(O)C6)nn5c4)c3Cl)c2Cl)ccc1CNC[C@@H]1CCC(=O)N1` [Example 697, (S)-5-((((6-(2-Chloro-3-(3-chloro-2-(2-((3-hydroxy-3-methylazetidin-1-yl)methyl)-4-methoxypyrrolo[2,1-f][1,2,4]triazin-6-yl)pyridin-4-yl)phenyl)-2-methoxypyridin-3-yl)methyl)amino)methyl)pyrrolidin-2-one] returned a concentration for half-maximal inhibition (IC50) in assay [1] of 6.26 nM. The compound further gave a half-maximal effective concentration (EC50) on human PD-L1 of 120 nM.

In assay [1], `COc1nc(-c2cccc(-c3ccnc(-c4cc(OC)c5nc(CN6CC7(COC7)C6)nn5c4)c3Cl)c2Cl)ccc1CNC1CCN(C(C)=O)CC1` [Example 698, 1-(4-(((6-(3-(2-(2-((2-Oxa-6-azaspiro[3.3]heptan-6-yl)methyl)-8-methoxy-[1,2,4]triazolo[1,5-a]pyridin-6-yl)-3-chloropyridin-4-yl)-2-chlorophenyl)-2-methoxypyridin-3-yl)methyl)amino)piperidin-1-yl)ethan-1-one] came in with an IC50 of 0.14 nM. In addition, a half-maximal response on human PD-L1 (EC50) required 261 nM.

On to `COc1cc(-c2nccc(-c3cccc(NC(=O)c4ccc(CNCCO)cn4)c3C)c2Cl)ccc1CNC1CCOCC1` [Example 703, N-(3-(3-Chloro-2-(3-methoxy-4-(((tetrahydro-2H-pyran-4-yl)amino)methyl)phenyl)pyridin-4-yl)-2-methylphenyl)-5-(((2-hydroxyethyl)amino)methyl)picolinamide], for which it took 0.14 nM to reach half-maximal inhibition in assay [1] (IC50). In addition, the EC50 at human PD-L1 is 146 nM.

The compound `COc1cc(-c2nccc(-c3cccc(NC(=O)c4ccc(CNC5CC6(C5)CN(C(C)=O)C6)cn4)c3Cl)c2Cl)ccc1CNC1CC2(C1)CN(C(C)=O)C2` (centres unmarked) [Example 706, 5-(((2-Acetyl-2-azaspiro[3.3]heptan-6-yl)amino)methyl)-N-(3-(2-(4-(((2-acetyl-2-azaspiro[3.3]heptan-6-yl)amino)methyl)-3-methoxyphenyl)-3-chloropyridin-4-yl)-2-chlorophenyl)picolinamide] gave an IC50 in assay [1] of 0.2 nM. This compound registered an EC50 at human PD-L1 of 72.6 nM.

As for `COc1nc(-c2ccnc(-c3cccc4c3CCC[C@@H]4Nc3nc(OC)c(CNC[C@H](C)O)cc3C(F)(F)F)c2Cl)ccc1CNC[C@@H]1CCC(=O)N1` [Example 707, (S)-5-((((3′-Chloro-2′-((S)-5-((5-((((S)-2-hydroxypropyl)amino)methyl)-6-methoxy-3-(trifluoromethyl)pyridin-2-yl)amino)-5,6,7,8-tetrahydronaphthalen-1-yl)-6-methoxy-[2,4′-bipyridin]-5-yl)methyl)amino)methyl)pyrrolidin-2-one], half-maximal inhibition in assay [1] (IC50) required 54.3 nM. At human PD-L1, the EC50 is at least 10000 nM.

In assay [1], `COc1nc(-c2cccc(-c3ccnc(-c4cc(OC)c5nc(CNCC(C)(C)O)nn5c4)c3Cl)c2Cl)ccc1CNC1CCN(C(C)=O)CC1` [Example 714, 1-(4-(((6-(2-chloro-3-(3-chloro-2-(2-(((2-hydroxy-2-methylpropyl)amino)methyl)-8-methoxy-[1,2,4]triazolo[1,5-a]pyridin-6-yl)pyridin-4-yl)phenyl)-2-methoxypyridin-3-yl)methyl)amino)piperidin-1-yl)ethan-1-one] showed an IC50 of 0.54 nM. This compound also returned an EC50 on human PD-L1 of 249 nM.

As for `COc1cc(-c2ncnc(-c3cccc(-c4ccc(CNC[C@@H]5CCC(=O)N5)c(OC)n4)c3Cl)c2OC)ccc1CNC[C@@H]1CCC(=O)N1` [Example 716, (S)-5-((((6-(2-chloro-3-(5-methoxy-6-(3-methoxy-4-(((((S)-5-oxopyrrolidin-2-yl)methyl)amino)methyl)phenyl)pyrimidin-4-yl)phenyl)-2-methoxypyridin-3-yl)methyl)amino)methyl)pyrrolidin-2-one], the IC50 in assay [1] is 0.6 nM. The compound also came in with an EC50 on human PD-L1 of 940 nM.

Consider `COc1nc(-c2ccnc(-c3cccc4c3CCC[C@@H]4Nc3nc(OC)c(CN4CC5(CNC(=O)C5)C4)cc3C(F)(F)F)c2Cl)ccc1CNC[C@@H]1CCC(=O)N1` [Example 720, 2-((6-(((S)-5-(3′-Chloro-6-methoxy-5-(((((S)-5-oxopyrrolidin-2-yl)methyl)amino)methyl)-[2,4′-bipyridin]-2′-yl)-1,2,3,4-tetrahydronaphthalen-1-yl)amino)-2-methoxy-5-(trifluoromethyl)pyridin-3-yl)methyl)-2,6-diazaspiro[3.4]octan-7-one], for which the IC50 in assay [1] was determined as 34.4 nM. Moreover, the EC50 on human PD-L1 was at least 10000 nM.

As to `COc1cc(-c2nccc(-c3cccc4c3CCC[C@@H]4Nc3nc(OC)c(CN4CC5(CNC(=O)C5)C4)cc3C(F)(F)F)c2Cl)ccc1CNC[C@@H]1CCC(=O)N1` [Example 724, 2-((6-(((S)-5-(3-Chloro-2-(3-methoxy-4-(((((S)-5-oxopyrrolidin-2-yl)methyl)amino)methyl)phenyl)pyridin-4-yl)-1,2,3,4-tetrahydronaphthalen-1-yl)amino)-2-methoxy-5-(trifluoromethyl)pyridin-3-yl)methyl)-2,6-diazaspiro[3.4]octan-7-one], in assay [1], half-maximal inhibition (IC50) required 585 nM. Besides, on human PD-L1, the EC50 is at least 10000 nM.

`Cc1c(NC(=O)c2ccc(CNC[C@@H]3CCC(=O)N3)cn2)cccc1-c1ccnc(-c2ccc(CNC[C@@H]3CCC(=O)N3)c(OC(F)F)c2)c1Cl` [Example 725, N-(3-(3-Chloro-2-(3-(difluoromethoxy)-4-(((((S)-5-oxopyrrolidin-2-yl)methyl)amino)methyl)phenyl)pyridin-4-yl)-2-methylphenyl)-5-(((((S)-5-oxopyrrolidin-2-yl)methyl)amino)methyl)picolinamide] displayed an IC50 in assay [1] of 0.53 nM. For the same compound, the EC50 at human PD-L1 came to 120 nM.

As to `COc1cc(-c2nccc(-c3cccc(NC(=O)c4ccc(CNC[C@@H]5CCC(=O)N5)cn4)c3C)c2Cl)cc(F)c1CNC[C@@H]1CCC(=O)N1` [Example 726, N-(3-(3-Chloro-2-(3-fluoro-5-methoxy-4-(((((S)-5-oxopyrrolidin-2-yl)methyl)amino)methyl)phenyl)pyridin-4-yl)-2-methylphenyl)-5-(((((S)-5-oxopyrrolidin-2-yl)methyl)amino)methyl)picolinamide], the IC50 in assay [1] was determined as 0.42 nM. On human PD-L1, this compound came in with an EC50 of 48.7 nM.
